Measured values reported in patent US20150259294A1, “METHOD OF PLANT GROWTH PROMOTION USING CARBOXAMIDE DERIVATIVES” (BAYER CROPSCIENCE AG, priority 2012, published 2015).

Assays:
[1] = test system: winter wheat variety Dekan; test: Foliar application field trial Laacherhof: greening effect in winter wheat; type: in vivo; conditions: 50 g a.i./ha, sprayed threefold at BBCH 31, 39 and 69; percentage of the color green; untreated control 21.7
Protocol: (§1) The field trial in winter wheat was conducted in the experimental station “Laacherhof” in Germany in spring/summer 2012.
(§2) Seeds of the winter wheat variety “Dekan” were planted on Oct. 17, 2011. Fertilization, herbicide- and plant growth regulator applications were carried out according to the local agricultural practice. Additionally, a cover spray with “Pronto Plus” was carried out at BBCH-growth stage 51 in order to keep brown rust (Puccinia triticina) out of the field trial (trial under pathogen-free conditions). The trial was conducted with 3 replicates and the replicates 2 and 3 were randomized. The plot size was 8.8 m^2.
(§3) Compounds A5 (N-(5-chloro-2-isopropylbenzyl)-N-cyclopropyl-3-(difluoromethyl)-5-fluoro-1-methyl-1H-pyrazole-4-carboxamide), A7 (N-cyclopropyl-3-(difluoromethyl)-5-fluoro-N-(5-fluoro-2-isopropylbenzyl)-1-methyl-1H-pyrazole-4-carboxamide), A12 (N-cyclopropyl-3-(difluoromethyl)-5-fluoro-N-(2-isopropyl-5-methylbenzyl)-1-methyl-1H-pyrazole-4-carboxamide) and A10 (N-cyclopropyl-3-(difluoromethyl)-5-fluoro-N-(2-fluoro-6-isopropylbenzyl)-1-methyl-1H-pyrazole-4-carboxamide) were sprayed threefold at BBCH-growth stages 31, 39 and 69 with an use rate of 50 g a.i./ha. All compounds were applied as 100EC formulation adding an adjuvant.
The greening effect of the single treatments was evaluated on Jul. 6, 2012.

[2] = test system: barley leave discs; test: Chlorophyll preservation bioassay in barley leave discs; conditions: barley leaves at 3 dpt vs control at 0 dpt; formula (I) compounds in EC100 formulation, other SDHI in field formulations
Protocol: (§4) To confirm the greening effect of compounds of formula (I) according to the invention observed in field trials, a simple bioassay was set up using wheat and barley. Discs of 1 cm of diameter were cut within leaves collected from 4 weeks old plants and deep at room temperature in water for 1 hour to allow ethylene produced after wound injury to dissipate. Control samples were produced dipping leave discs for 15 min in a solution of 5% DMSO-10% acetone-0.005% tween80 (bioassay formulation), immediately frozen (control 0 day post treatment-dpt) or deposited on Whatmann filter paper soaked by the bioassay formulation, in Petri dishes, […] Leaves discs treated with test compound were processed in the same way. In this case, leave discs were deep for 15 minutes in test compound solution and left to incubate on filter paper soaked with the corresponding test solution. Compounds of formula (I) according to the invention were tested in EC100 formulation unless otherwise specified; Other SDHI fungicides (Fluxapyroxad, Isopyrazam and Hambra) were tested in their respective field formulations.
(§5) Leave discs were frozen in liquid nitrogen and ground prior to chlorophyll extraction with 1 mL of an acetone-water (80-20 vol/vol) solution and chlorophyll concentration evaluation at 663 nm. Percentages of chlorophyll content in 3 or 4 dpt controls and corresponding treated samples were reported to the chlorophyll content measured in 0 dpt controls.

[3] = test system: corn; test: Foliar application field trial USA (FA12NARS4CUJX1): green foliage and yield in corn; type: in vivo; conditions: for Greening Effect (%): 100 EC, green foliage of corn at EC 79, untreated control 43; for Grain Yield (dt/ha): untreated control 39.5
Protocol: The field trial FA12NARS4CUJX1 was conducted in the USA (IA, 50046 Cambridge) in spring 2012.
The crop was planted on April 2012. Fertilization and herbicide applications were carried out according to the local agricultural practice.
The trial was conducted with 4 replicates. Plot size was 80 m^2 and there were four replicates.
Compound A5 was applied as a 100 EC formulation with rates of 20 and 50 g a.i./ha twice in the growing season at BBCH-growth stages EC 15 and 61.
In this trial there was no significant leaf disease severity assessed (Kabatiella zeae pest severity below 5%). It can be considered as almost disease free.
The trial was harvested on September 2012.

[4] = test system: soybean cultivar BRS 245; test: Soybean seed treatment field trial: development and yield; type: in vivo; conditions: for Plant Height (cm)/%: 050 SC, 42 days after planting, untreated control 33 cm = 100%; for Weight Root (g)/% / Weight Dry Plant (g)/%: 49 days after planting; for Weight Root (g)/%: untreated control 10 g = 100%; for Weight Dry Plant (g)/%: untreated control 46 g = 100%; for Grain Yield (dt)/%: untreated control 28 dt = 100%; for Weight of 1000 Grains (g)/%: untreated control 125 g = 100%
Protocol: Seeds of the Brazilian soybean cultivar BRS 245 were treated with compound A5: […] The product was applied as 050 SC with rates of 25 and 100 g a.i./dt. The field trial was set up in an experimental station close to Paulinia, S. P., in Brazil, in February 2012. […] Fertilization, herbicide- and insecticide applications were carried out according to the local agricultural practice. 42 days after planting plant height, 49 days after planting the dry weight of both entire green plants and the roots were measured. This trial was done under almost disease free conditions (“Asian Soybean Rust” Phakopsora pachyrhizi arrived about month after planting with a very low severity).

[5] = test system: wheat leave discs; test: Chlorophyll preservation bioassay in wheat leave discs; conditions: wheat leave discs at 4 dpt vs control at 0 dpt; formula (I) compounds in EC100 formulation, other SDHI in field formulations
Protocol: as §4, §5

[6] = test system: winter wheat variety Dekan; test: Foliar application field trial Laacherhof: yield of winter wheat; type: in vivo; conditions: 50 g a.i./ha, sprayed threefold at BBCH 31, 39 and 69, 100EC formulation with adjuvant
Protocol: as §1, §2, §3
The winter wheat was harvested on Aug. 3, 2012.

[7] = test system: winter wheat variety Akteur; test: Foliar application field trial Langfoerden (FA12DSD559XJE1): yield in winter wheat; type: in vivo; conditions: for Grain Yield (dt/ha): 100 EC, disease free, untreated control 62
Protocol: The field trial FA12DSD559XJE1 was conducted in the experimental station “Langfoerden” in Germany in spring 2012.
Winter wheat, variety “Akteur”, was planted on November 2011. Fertilization, herbicide- and plant growth regulator applications were carried out according to the local agricultural practice.
The trial was conducted with 4 replicates. Plot size was 16 m^2 and there were four replicates.
Compound A5 was applied as a 100 EC formulation with rates of 37 and 75 g a.i./ha twice in the growing season at BBCH-growth stages EC 33 and 61.
In this trial there was no significant disease severity assessed. It can be considered as disease free.
The trial was harvested on August 2012.

[8] = 20 g a.i./ha twice (EC 15 and 61)
[9] = 50 g a.i./ha twice (EC 15 and 61)
[10] = 37 g a.i./ha twice (EC 33 and 61)
[11] = 75 g a.i./ha twice (EC 33 and 61)

Q: What does the source list for CC(C)c1ccc(Cl)cc1CN(C(=O)c1c(C(F)F)nn(C)c1F)C1CC1 [Compound A5, N-(5-chloro-2-isopropylbenzyl)-N-cyclopropyl-3-(difluoromethyl)-5-fluoro-1-methyl-1H-pyrazole-4-carboxamide]?
A: Greening Effect (%) [1]: 26.7%; Chlorophyll content (%) [2]: 55%; Grain Yield (% of Untreated Control) [3, 8]: 123%; Greening Effect (%) [3, 8]: 59%; Grain Yield (dt/ha) [3, 8]: 48.5 dt/ha; Grain Yield (% of Untreated Control) [3, 9]: 131%; Greening Effect (%) [3, 9]: 63%; Grain Yield (dt/ha) [3, 9]: 51.8 dt/ha; effect on maintenance of green leaves in corn (in words) ([3]; foliar sprays): clearly has an effect on the maintenance of the green leaves shortly before harvest; Plant Height (cm)/% ([4]; seed treatment 25 g a.i./dt): 105%; Weight Root (g)/% ([4]; seed treatment 25 g a.i./dt): 117%; Weight Dry Plant (g)/% ([4]; seed treatment 25 g a.i./dt): 107%; Grain Yield (dt)/% ([4]; seed treatment 25 g a.i./dt): 112%; Weight of 1000 Grains (g)/% ([4]; seed treatment 25 g a.i./dt): 103%; Plant Height (cm)/% ([4]; seed treatment 100 g a.i./dt): 105%; Weight Root (g)/% ([4]; seed treatment 100 g a.i./dt): 103%; Weight Dry Plant (g)/% ([4]; seed treatment 100 g a.i./dt): 108%; Grain Yield (dt)/% ([4]; seed treatment 100 g a.i./dt): 111%; Weight of 1000 Grains (g)/% ([4]; seed treatment 100 g a.i./dt): 105%; impact on development and yield of soybean (in words) ([4]; seed treatment, almost disease free conditions): clearly stimulates the physiological development of soybean plants and boosts both grain yield and the grain weight; Chlorophyll content (%) [5]: 78%; Grain Yield (% of Untreated Control) [6]: 120%; Grain Yield (dt/ha) ([6]; untreated control 86.25): 103.1 dt/ha; Grain Yield (% of Untreated Control) [7, 10]: 117%; Grain Yield (dt/ha) [7, 10]: 72 dt/ha; Grain Yield (% of Untreated Control) [7, 11]: 124%; Grain Yield (dt/ha) [7, 11]: 76 dt/ha; effect on grain yield in winter wheat (in words) ([7]; foliar sprays, practically disease-free): clearly has an effect on grain yield
